Data published in US20170107212A1, “NOVEL COMPOUNDS” (Bayer Pharma Aktiengesellschaft, priority 2014, published 2017).
Where a name gives a salt, the structure may show the parent alone.

How the values were obtained:
[1] = system: constitutive active colorectal cancer cell (CRC) Wnt pathway, HCT116 TOPFlash; test: Cellular reporter assay, HCT116 Super TopFlash (constitutive active Wnt pathway), luciferase expression; assay type: cell-based; conditions: HCT116 Super TopFlash reporter cells, 36 hours incubation, dilution series 50 μM to 15 nM
Summary of the method: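 HCT116 cells stably carrying Super TopFlash (β-catenin ΔS45, constitutive Wnt) run in parallel with FOP control line; compounds 50 μM to 15 nM (3.16-fold) in CAFTY buffer pH 7.4 with 2 mM Ca2+, 0.01% BSA, 36 h at 37 °C. Luciferase luminescence read as Wnt activity.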

[2] = system: HCT116 FOPFlash; test: Control reporter assay, HCT116 FOP control vector (non-functional TCF elements), luciferase expression; assay type: cell-based; conditions: Homo sapiens, HCT-116, 36 h, HCT116 FOP control reporter cells, 36 hours incubation, dilution series 50 μM to 15 nM
Summary of the method: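 Stable HCT116 cells carrying FOP vector (randomized non-functional TCF sites) plus pcDNA3, run in parallel with TOP line; compounds 50 μM to 15 nM (3.16-fold steps) added in CAFTY buffer pH 7.4 with 2 mM Ca2+, 0.01% BSA. Incubated 36 h at 37 °C, 5% CO2; luciferase luminescence read.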

Structure (SMILES) | IC50 ([1]; Homo sapiens, HCT-116, 36 h) [nM] | IC50 [2] [nM] | IC50 [1] [nM]
O=C(Nc1nnc(-c2cccnc2)s1)c1ccc(OC(F)(F)F)c(NC(=O)C2(N3CCOCC3)CC2)c1 [Example 2, 3-({[1-(morpholin-4-yl)cyclopropyl]carbonyl}amino)-N-[5-(pyridin-3-yl)-1,3,4-thiadiazol-2-yl]-4-(trifluoromethoxy)benzamide] | 282 | ≥ 50000 | 
Cc1cncc(-c2nnc(NC(=O)c3ccc(OC(F)(F)F)c(NC(=O)CN4CCOCC4)c3)s2)c1 [Example 56, N-[5-(5-methylpyridin-3-yl)-1,3,4-thiadiazol-2-yl]-3-[(morpholin-4-ylacetyl)amino]-4-(trifluoromethoxy)benzamide] | 470 | ≥ 50000 | 
CC(C(=O)Nc1cc(C(=O)Nc2ccc(-c3cncnc3)nc2)ccc1OC(F)(F)F)N1CCOCC1 (centres unmarked) [Example 4, 3-{[2-(morpholin-4-yl)propanoyl]amino}-N-[6-(pyrimidin-5-yl)pyridin-3-yl]-4-(trifluoromethoxy)benzamide] | 19.5 | ≥ 50000 | 
CN1CCN(CC(=O)Nc2cc(C(=O)Nc3ccc(-c4cncnc4)cn3)ccc2OC(F)(F)F)CC1 [Example 46, 3-{[(4-methylpiperazin-1-yl)acetyl]amino}-N-[5-(pyrimidin-5-yl)pyridin-2-yl]-4-(trifluoromethoxy)benzamide] | 18.3 | ≥ 50000 | 
O=C(CN1CCOCC1)Nc1cc(C(=O)Nc2nnc(-c3cccnc3)s2)ccc1OC1CC1 [Example 35, 4-(cyclopropyloxy)-3-[(morpholin-4-ylacetyl)amino]-N-[5-(pyridin-3-yl)-1,3,4-thiadiazol-2-yl]benzamide] | 278 | ≥ 50000 | 
O=C(CN1CCOCC1)Nc1cc(C(=O)Nc2nnc(-c3cnccn3)s2)ccc1OC1CC1 [Example 117, 4-(cyclopropyloxy)-3-[(morpholin-4-ylacetyl)amino]-N-[5-(pyrazin-2-yl)-1,3,4-thiadiazol-2-yl]benzamide] | ≥ 50000 | ≥ 50000 | 
Nc1ncc(-c2ccc(NC(=O)c3ccc(OC(F)(F)F)c(NC(=O)CN4CCOCC4)c3)nc2)cn1 [Example 17, N-[5-(2-aminopyrimidin-5-yl)pyridin-2-yl]-3-[(morpholin-4-ylacetyl)amino]-4-(trifluoromethoxy)benzamide] | 120 | ≥ 50000 | 
Cc1cncc(-c2nnc(NC(=O)c3ccc(OC(F)(F)F)c(NC(=O)CN4CCOCC4)c3)s2)n1 [Example 48, N-[5-(6-methylpyrazin-2-yl)-1,3,4-thiadiazol-2-yl]-3-[(morpholin-4-ylacetyl)amino]-4-(trifluoromethoxy)benzamide] | 663 | ≥ 50000 | 
O=C(CN1CCOCC1)Nc1cc(C(=O)Nc2ccc(-c3cccnc3F)cn2)ccc1OC(F)(F)F [Example 16, N-(2′-fluoro-3,3′-bipyridin-6-yl)-3-[(morpholin-4-ylacetyl)amino]-4-(trifluoromethoxy)benzamide] | 103 | ≥ 50000 | 
Cc1ccncc1-c1nnc(NC(=O)c2ccc(OC(F)(F)F)c(NC(=O)CN3CCOCC3)c2)s1 [Example 71, N-[5-(4-methylpyridin-3-yl)-1,3,4-thiadiazol-2-yl]-3-[(morpholin-4-ylacetyl)amino]-4-(trifluoromethoxy)benzamide] | 4660 | ≥ 50000 | 
CN1CCN(CC(=O)Nc2cc(C(=O)Nc3cnc(-c4cccnc4F)cn3)ccc2OC(F)(F)F)CC1 [Example 51] | 79 | ≥ 50000 | 
Cc1ccncc1-c1nnc(NC(=O)c2ccc(OC(F)(F)F)c(NC(=O)CN3CCN(C)CC3)c2)s1 [Example 36, 3-{[(4-methylpiperazin-1-yl)acetyl]amino}-N-[5-(4-methylpyridin-3-yl)-1,3,4-thiadiazol-2-yl]-4-(trifluoromethoxy)benzamide hydrochloride (1:1)] |  | ≥ 50000 | 60
CN1CCN(CC(=O)Nc2cc(C(=O)Nc3nnc(-c4ccncc4)s3)ccc2OC(F)(F)F)CC1 [Example 83, 3-{[(4-methylpiperazin-1-yl)acetyl]amino}-N-[5-(pyridin-4-yl)-1,3,4-thiadiazol-2-yl]-4-(trifluoromethoxy)benzamide] | 26300 | ≥ 50000 | 
CN1CCN(CC(=O)Nc2cc(C(=O)Nc3cnc(-c4ccnc(N)c4)cn3)ccc2OC(F)(F)F)CC1 [Example 53, N-[5-(2-aminopyridin-4-yl)pyrazin-2-yl]-3-{[(4-methylpiperazin-1-yl)acetyl]amino}-4-(trifluoromethoxy)benzamide] | 2000 | ≥ 50000 | 
O=C(CN1CCOCC1)Nc1cc(C(=O)Nc2ccc(-c3cncnc3)cn2)ccc1OC1CC1 [Example 75, 4-(cyclopropyloxy)-3-[(morpholin-4-ylacetyl)amino]-N-[5-(pyrimidin-5-yl)pyridin-2-yl]benzamide] | 37 | ≥ 50000 | 
CC(C(=O)Nc1cc(C(=O)Nc2ccc(-c3ccncc3)nc2)ccc1OC(F)(F)F)N1CCOCC1 (centres unmarked) [Example 22, N-(2,4′-bipyridin-5-yl)-3-{[2-(morpholin-4-yl)propanoyl]amino}-4-(trifluoromethoxy)benzamide] | 285 | ≥ 50000 | 
O=C(CN1CCOCC1)Nc1cc(C(=O)Nc2nnc(-c3cncc(C(F)(F)F)c3)s2)ccc1OC(F)(F)F [Example 58, 3-[(morpholin-4-ylacetyl)amino]-4-(trifluoromethoxy)-N-{5-[5-(trifluoromethyl)pyridin-3-yl]-1,3,4-thiadiazol-2-yl}benzamide] | 7390 | 27300 | 
O=C(CN1CCOCC1)Nc1cc(C(=O)Nc2nnc(-c3cncs3)s2)ccc1OC(F)(F)F [Example 103, 3-[(morpholin-4-ylacetyl)amino)-N-[5-(1,3-thiazol-5-yl)-1,3,4-thiadiazol-2-yl]-4-(trifluoromethoxy)benzamide] | 12200 | ≥ 50000 | 
O=C(CN1CCOCC1)Nc1cc(C(=O)Nc2nnc(-c3cncc(Cl)c3)s2)ccc1OC(F)(F)F [Example 47, N-[5-(5-chloropyridin-3-yl)-1,3,4-thiadiazol-2-yl]-3-[(morpholin-4-ylacetyl)amino]-4-(trifluoromethoxy)benzamide] | 585 | ≥ 50000 | 
CN1CCN(CC(=O)Nc2cc(C(=O)Nc3nnc(-c4cncnc4)s3)ccc2OC2CC2)CC1 [Example 112, 4-(cyclopropyloxy)-3-{[(4-methylpiperazin-1-yl)acetyl]amino}-N-[5-(pyrimidin-5-yl)-1,3,4-thiadiazol-2-yl]benzamide] | 330 | ≥ 50000 | 
CN1CCN(C2(C(=O)Nc3cc(C(=O)Nc4nnc(-c5cccnc5)s4)ccc3OC(F)(F)F)CC2)CC1 [Example 19, 3-({[1-(4-methylpiperazin-1-yl)cyclopropyl]carbonyl}amino)-N-[5-(pyridin-3-yl)-1,3,4-thiadiazol-2-yl]-4-(trifluoromethoxy)benzamide hydrochloride] | 105 | ≥ 50000 | 
CC(C(=O)Nc1cc(C(=O)Nc2ccc(-c3cccnc3)nc2)ccc1OC(F)(F)F)N1CCOCC1 (centres unmarked) [Example 8, N-(2,3′-bipyridin-5-yl)-3-{[2-(morpholin-4-yl)propanoyl]amino}-4-(trifluoromethoxy)benzamide] | 11.6 | ≥ 50000 | 
Cc1ncccc1-c1nnc(NC(=O)c2ccc(OC(F)(F)F)c(NC(=O)CN3CCN(C)CC3)c2)s1 [Example 27, 3-{[(4-methylpiperazin-1-yl)acetyl]amino}-N-[5-(2-methylpyridin-3-yl)-1,3,4-thiadiazol-2-yl]-4-(trifluoromethoxy)benzamide] | 2700 | ≥ 50000 | 
Cc1nc(-c2nnc(NC(=O)c3ccc(OC(F)(F)F)c(NC(=O)CN4CCN(C)CC4)c3)s2)cs1 [Example 44, 3-{[(4-methylpiperazin-1-yl)acetyl]amino}-N-[5-(2-methyl-1,3-thiazol-4-yl)-1,3,4-thiadiazol-2-yl]-4-(trifluoromethoxy)benzamide] | 423 | ≥ 50000 | 
O=C(CN1CCOCC1)Nc1cc(C(=O)Nc2nnc(-c3cscn3)s2)ccc1OC(F)(F)F [Example 67, 3-[(morpholin-4-ylacetyl)amino]-N-[5-(1,3-thiazol-4-yl)-1,3,4-thiadiazol-2-yl]-4-(trifluoromethoxy)benzamide] | 1650 | ≥ 50000 | 
O=C(CN1CCOCC1)Nc1cc(C(=O)Nc2nnc(-c3nccs3)s2)ccc1OC(F)(F)F [Example 101, 3-[(morpholin-4-ylacetyl)amino]-N-[5-(1,3-thiazol-2-yl)-1,3,4-thiadiazol-2-yl]-4-(trifluoromethoxy)benzamide] | ≥ 50000 | ≥ 50000 | 
O=C(CN1CCOCC1)Nc1cc(C(=O)Nc2nnc(-c3ncccc3F)s2)ccc1OC(F)(F)F [Example 96, N-[5-(3-fluoropyridin-2-yl)-1,3,4-thiadiazol-2-yl]-3-[(morpholin-4-ylacetyl)amino]-4-(trifluoromethoxy}benzamide] | ≥ 50000 | ≥ 50000 | 
CN1CCN(CC(=O)Nc2cc(C(=O)Nc3ccc(-c4ccc(N)nc4)cn3)ccc2OC(F)(F)F)CC1 [Example 10, N-(6′-amino-3,3′-bipyridin-6-yl)-3-{[(4-methylpiperazin-1-yl)acetyl]amino}-4-(trifluoromethoxy)benzamide] | 58 | ≥ 50000 | 
